From patent publication US12065442B2, “Tropomyosin receptor kinase (TRK) degradation compounds and methods of use” (Cullgen (Shanghai), Inc., priority 2018, dated 2024) come the findings set out here.

One assay deals with KM12 cells. Put plainly: Cell viability assay (CellTiter-Glo) in KM12 cells. Format: cell-based. Conditions: Homo sapiens.
Assay [1] concerns the target T1, TPM3-TRKA fusion protein (Homo sapiens, UniProt P04629+P06753+Q96SW2). Put plainly: Immunoblotting of TPM3-TRKA fusion protein in KM12 cells. Format: cell-based. On the set-up: The resulted chimeric proteins always retain the kinase domain of TRK proteins; TPM3 (N-terminal fusion partner, natural gene fusion); endogenous in cells; host or cells: KM12 colon cancer cells. As to the method:
Specific exemplary bivalent compounds were characterized in KM12 cells. […] Cells were collected, lysed and subject to immunoblotting using an antibody specific to TRK proteins. GAPDH was included as the loading control. DMSO was used as the negative control.
KM12 cells were treated with DMSO or indicated compounds at 100 nM for 16 hours.
KM12 cells were treated with CPD-027, CPD-053, and CPD-060 at 100 nM for indicated incubation time. […]
(§1) KM12 or HEL cells were treated with a dose range of compound TR-123 or TR-123-negative. The latter lost binding to cereblon (CRBN) due to a chemical modification.
KM12 or HEL cells were treated with a single dose of compound TR-123 or combination with MG-132, Bortezomib, MLN4924 or Pomalidomide. […]
(§2) Cultured cells were washed with cold PBS once and lysed in cold RIPA buffer supplemented with protease inhibitors and phosphatase inhibitors (Beyotime Biotechnology). The solutions were then incubated at 4° C. for 30 minutes with gentle agitation to fully lyse cells. For tumor tissues, tumors were cut into small pieces, milled with cold RIPA buffer using a mechanical homogenizer and lysed for 1 hour at 4° C. Cell lysates were centrifuged at 13,000 rpm for 10 minutes at 4° C. and pellets were discarded. Total protein concentrations in the lysates were determined by BCA assays (Beyotime Biotechnology). Cell lysates were mixed with Laemmli loading buffer to 1× and heated at 99° C. for 5 min. Proteins were resolved on SDS-PAGE and visualized by chemiluminescence. Images were taken by a ChemiDoc MP Imaging system (Bio-Rad). Protein bands were quantitated using the software provided by Bio-Rad.

Assay [2] has as its target T1, TPM3-TRKA fusion protein. Put plainly: Immunoblotting of TPM3-TRKA in KM12 subcutaneous xenograft tumors. Format: in vivo, Athymic nude mice. On the set-up: The resulted chimeric proteins always retain the kinase domain of TRK proteins; TPM3 (N-terminal fusion partner, natural gene fusion); from tissue; host or cells: KM12 subcutaneous xenograft tumors in athymic nude mice. The note with it: for TPM3-TRKA degradation in KM12 subcutaneous tumors: intraperitoneal or oral administration, eight hours after administration (FIG. 10). As to the method:
In addition to cultured cells, athymic nude mice bearing KM12 subcutaneous xenograft tumors at the right flank were intraperitoneally treated with 10, 20, or 50 mg/kg CPD-053, CPD-027, or CPD-060. Four hours after drug administration, animals were sacrificed for immunoblotting of TPM3-TPKA in homogenized xenograft tumor masses. The label “a” or “b” represents two different samples of the same xenograft tumor.
Athymic nude mice bearing KM12 subcutaneous xenograft tumors at the right flank were intraperitoneally treated with 10, 20, or 50 mg/kg CPD-053, CPD-027, or CPD-060, as indicated in FIG. 3. Four hours after drug administration, animals were sacrificed for immunoblotting of TPM3-TPKA in homogenized xenograft tumor chunks. The label “a” or “b” represents two different chunks of the same xenograft tumor.
Athymic nude mice bearing KM12 subcutaneous xenograft tumors at the right flank were intraperitoneally or orally treated with bivalent compounds at indicated dose. Eight hours after drug administration, animals were sacrificed for immunoblotting of TPM3-TPKA in homogenized xenograft tumor samples.
as §2
All animal experiments were performed under protocols approved by the Institutional Animal Care and Use Committee (IACUC) of Cullgen. Athymic nude mice (male, 5-weeks old) received 5 million KM12 cells subcutaneously inoculated at the right flank site. Ten days following inoculation, tumors were approximately 500 mm3 in size. Tumor-bearing mice were treated intraperitoneally with vehicle or bivalent compounds at indicated doses. Tumor sizes and body weight of mice were measured every 2 days. In addition, immunoblotting assays were employed to assess the levels of TRKA fusion proteins in xenograft tumors around 500 mm^3 in size following drug administration. At indicated hours after drug administration, selected mice were sacrificed, tumors were resected. Small chunks of tumors were homogenized for immunoblotting of TPM3-TPKA and other proteins as indicated.
Background: A western blot detects proteins with antibodies after separation by electrophoresis.

The target in a further assay is T2, wild type TRKA protein (Homo sapiens, UniProt P04629).
T2 construct: immunoblot of wild type TRKA protein expressed by HEL cells; endogenous in cells; host or cells: HEL cells
Description: Immunoblotting of wild type TRKA protein in HEL cells. The note with it: dose range (FIG. 8B). The format is cell-based. On the procedure: as §1
KM12 or HEL cells were treated with a single dose of compound TR-123 or combination with MG-132, Bortezomib, MLN4924 or Pomalidomide.
as §2

The mark [3] stands for this setting: 72 h, Table 3, KM12 cell viability, CellTiter-Glo, 3 days, read-out: IC50.
[4] abbreviates: 72 h, Table 4, KM12 cell viability, CellTiter-Glo, 3 days, read-out: IC50.

Each structure is given as a SMILES string. Like-named read-outs stand apart in the source and are kept apart here.

T1 sequence (P06753+P04629 fused): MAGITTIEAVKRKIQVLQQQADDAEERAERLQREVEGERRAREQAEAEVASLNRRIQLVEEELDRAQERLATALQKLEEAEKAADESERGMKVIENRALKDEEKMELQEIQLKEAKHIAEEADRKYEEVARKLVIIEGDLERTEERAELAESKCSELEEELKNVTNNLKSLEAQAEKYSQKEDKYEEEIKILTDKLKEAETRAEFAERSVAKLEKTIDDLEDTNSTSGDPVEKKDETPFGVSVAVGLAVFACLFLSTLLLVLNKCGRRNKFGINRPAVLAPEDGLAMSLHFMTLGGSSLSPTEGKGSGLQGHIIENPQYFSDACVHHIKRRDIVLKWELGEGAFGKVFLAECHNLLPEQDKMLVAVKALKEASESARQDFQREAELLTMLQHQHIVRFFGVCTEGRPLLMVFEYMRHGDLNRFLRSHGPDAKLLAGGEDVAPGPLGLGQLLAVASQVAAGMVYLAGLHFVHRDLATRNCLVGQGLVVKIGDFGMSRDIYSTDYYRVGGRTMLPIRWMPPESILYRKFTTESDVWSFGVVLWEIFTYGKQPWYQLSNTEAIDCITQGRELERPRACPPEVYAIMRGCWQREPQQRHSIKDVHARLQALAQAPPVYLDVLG
T1 sequence (Q96SW2 whole entry, the tested form may be a part): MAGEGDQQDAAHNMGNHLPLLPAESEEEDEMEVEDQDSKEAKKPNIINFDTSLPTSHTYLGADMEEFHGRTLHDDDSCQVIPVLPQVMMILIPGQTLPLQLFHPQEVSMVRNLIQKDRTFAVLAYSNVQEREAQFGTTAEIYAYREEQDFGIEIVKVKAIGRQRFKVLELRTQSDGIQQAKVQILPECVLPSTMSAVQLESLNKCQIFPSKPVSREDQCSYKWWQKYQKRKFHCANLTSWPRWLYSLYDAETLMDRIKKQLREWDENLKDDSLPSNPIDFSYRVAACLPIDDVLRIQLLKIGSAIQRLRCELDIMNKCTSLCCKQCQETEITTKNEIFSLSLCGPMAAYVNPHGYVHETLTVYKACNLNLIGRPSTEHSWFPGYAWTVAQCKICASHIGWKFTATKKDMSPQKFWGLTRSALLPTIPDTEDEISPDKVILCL
T1 sequence (Q16531 whole entry partner, the tested form may be a part): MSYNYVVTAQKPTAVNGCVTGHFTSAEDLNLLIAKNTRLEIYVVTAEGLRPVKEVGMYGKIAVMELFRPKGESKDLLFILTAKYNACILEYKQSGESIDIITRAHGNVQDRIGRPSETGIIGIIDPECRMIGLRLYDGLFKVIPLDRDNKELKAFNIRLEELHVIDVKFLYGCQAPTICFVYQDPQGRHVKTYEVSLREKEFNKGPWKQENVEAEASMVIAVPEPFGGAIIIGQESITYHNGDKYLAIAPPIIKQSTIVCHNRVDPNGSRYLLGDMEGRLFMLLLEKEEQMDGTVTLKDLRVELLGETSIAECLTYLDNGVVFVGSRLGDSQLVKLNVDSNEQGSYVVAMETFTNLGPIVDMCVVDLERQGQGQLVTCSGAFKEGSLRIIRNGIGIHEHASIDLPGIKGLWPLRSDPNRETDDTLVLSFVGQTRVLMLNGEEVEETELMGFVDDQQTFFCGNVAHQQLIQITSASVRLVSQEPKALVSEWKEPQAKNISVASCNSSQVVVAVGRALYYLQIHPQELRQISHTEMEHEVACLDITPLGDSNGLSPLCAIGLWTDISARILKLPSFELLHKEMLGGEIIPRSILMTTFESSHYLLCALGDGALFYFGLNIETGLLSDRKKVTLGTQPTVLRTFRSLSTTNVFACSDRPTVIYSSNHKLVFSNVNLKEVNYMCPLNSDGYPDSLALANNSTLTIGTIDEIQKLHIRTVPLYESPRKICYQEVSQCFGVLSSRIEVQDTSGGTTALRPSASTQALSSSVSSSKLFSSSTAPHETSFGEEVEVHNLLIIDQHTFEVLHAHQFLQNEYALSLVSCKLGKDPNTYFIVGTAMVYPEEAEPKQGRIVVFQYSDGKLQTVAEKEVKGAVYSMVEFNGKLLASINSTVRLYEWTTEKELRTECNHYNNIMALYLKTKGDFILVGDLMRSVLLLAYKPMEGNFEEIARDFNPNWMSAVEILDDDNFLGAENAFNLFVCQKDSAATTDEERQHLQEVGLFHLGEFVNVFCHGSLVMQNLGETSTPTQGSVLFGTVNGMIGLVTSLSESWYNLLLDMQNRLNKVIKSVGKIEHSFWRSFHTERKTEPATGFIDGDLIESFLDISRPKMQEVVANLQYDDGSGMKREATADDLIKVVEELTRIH
T2 sequence (P04629 33-796): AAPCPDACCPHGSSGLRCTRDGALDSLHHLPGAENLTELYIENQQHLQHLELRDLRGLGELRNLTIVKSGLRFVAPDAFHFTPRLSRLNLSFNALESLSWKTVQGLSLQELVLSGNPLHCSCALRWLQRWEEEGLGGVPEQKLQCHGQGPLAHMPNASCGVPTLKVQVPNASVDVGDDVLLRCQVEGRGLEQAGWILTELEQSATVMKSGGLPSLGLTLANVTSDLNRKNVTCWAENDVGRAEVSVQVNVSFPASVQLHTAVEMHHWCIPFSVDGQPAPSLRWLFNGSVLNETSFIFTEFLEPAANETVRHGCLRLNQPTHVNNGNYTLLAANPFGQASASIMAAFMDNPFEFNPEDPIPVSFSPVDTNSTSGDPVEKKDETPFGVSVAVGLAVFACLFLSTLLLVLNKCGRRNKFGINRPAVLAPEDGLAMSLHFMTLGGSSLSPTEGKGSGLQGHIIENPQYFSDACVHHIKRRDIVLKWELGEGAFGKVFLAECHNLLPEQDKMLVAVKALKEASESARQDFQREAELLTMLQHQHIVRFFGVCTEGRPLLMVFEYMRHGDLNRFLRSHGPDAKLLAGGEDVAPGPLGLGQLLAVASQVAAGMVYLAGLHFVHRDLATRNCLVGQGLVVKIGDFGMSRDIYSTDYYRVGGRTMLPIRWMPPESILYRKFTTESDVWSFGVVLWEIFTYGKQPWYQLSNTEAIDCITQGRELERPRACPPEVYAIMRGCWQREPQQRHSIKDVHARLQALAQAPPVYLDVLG

Take `O=C1CCC(N2C(=O)c3cccc(NCCOCCC(=O)N4CCN(c5cccc(-c6cnc7ccc(N8CCC[C@@H]8c8cccc(F)c8)nn67)n5)CC4)c3C2=O)C(=O)N1` (stereo partly drawn) [CPD-027, 2-(2,6-Dioxopiperidin-3-yl)-4-((2-(3-(4-(6-(6-((R)-2-(3-fluorophenyl)pyrrolidin-1-yl)imidazo[1,2-b]pyridazin-3-yl)pyridin-2-yl)piperazin-1-yl)-3-oxopropoxy)ethyl)amino)isoindoline-1,3-dione]: in the assay with KM12 cells (72 h, Table 2, KM12 cell viability, CellTiter-Glo, 3 days, read-out: IC50), the IC50 was found to be 4.9 nM. At TPM3-TRKA fusion protein [1] (100 nM (FIG. 2)), the “time after adding compound at which significant degradation of TPM3-TRKA was detected” value was 15 min. Moreover, the TPM3-TRKA protein levels result on TPM3-TRKA fusion protein [1] (100 nM, 16 hours (FIG. 1A-1C)) is listed as “particularly effective in reducing TPM3-TRKA protein levels”. Besides, the “TPM3-TRKA protein levels, time course” value at TPM3-TRKA fusion protein [1] (100 nM, indicated incubation time (FIG. 2)) is “rapidly reduced TPM3-TRKA protein levels”. In addition, the “TPM3-TRKA protein levels in KM12 subcutaneous xenograft tumors” value at TPM3-TRKA fusion protein [2] (10, 20, or 50 mg/kg intraperitoneally, single dose, four hours after administration (FIG. 3)) is recorded as “significantly reducing TPM3-TRKA protein levels”.

Consider `CN1C(=O)CCC(N2C(=O)c3ccc(NCC(=O)N4CCN(c5cccc(-c6cnc7ccc(N8CCC[C@@H]8c8cccc(F)c8)nn67)n5)CC4)cc3C2=O)C1=O` (stereo partly drawn) [TR-123-negative, 5-((2-(4-(6-(6-((R)-2-(3-Fluorophenyl)pyrrolidin-1-yl)imidazo[1,2-b]pyridazin-3-yl)pyridin-2-yl)piperazin-1-yl)-2-oxoethyl)amino)-2-(1-methyl-2,6-dioxopiperidin-3-yl)isoindoline-1,3-dione], for which the TRKA protein levels result at wild type TRKA protein and on TPM3-TRKA fusion protein [1] (dose range (FIG. 8A)) was “none or less effects on TRKA protein levels” each time.

Regarding `O=C1CCC(N2C(=O)c3ccc(NCCCN4CCN(c5cccc(-c6cnc7ccc(N8CCC[C@@H]8c8cccc(F)c8)nn67)n5)CC4)cc3C2=O)C(=O)N1` (stereo partly drawn) [TR-171, 2-(2,6-Dioxopiperidin-3-yl)-5-((3-(4-(6-(6-((R)-2-(3-fluorophenyl)pyrrolidin-1-yl)imidazo[1,2-b]pyridazin-3-yl)pyridin-2-yl)piperazin-1-yl)propyl)amino)isoindoline-1,3-dione], the concentration for half-maximal inhibition (IC50) in the assay on KM12 cells (setting [3]) came to 5.2 nM. Moreover, on TPM3-TRKA fusion protein [2], the “TPM3-TRKA degradation in KM12 subcutaneous tumors” value (from here on “TPM3-TRKA degradation”) is “exhibited the activities to induce TPM3-TRKA degradation”.

On to `O=C1CCC(N2C(=O)c3ccc(CCCN4CCN(c5cccc(-c6cnc7ccc(N8CCC[C@@H]8c8cccc(F)c8)nn67)n5)CC4)cc3C2=O)C(=O)N1` (stereo partly drawn) [TR-172, 2-(2,6-dioxopiperidin-3-yl)-5-(3-(4-(6-(6-((R)-2-(3-fluorophenyl)pyrrolidin-1-yl)imidazo[1,2-b]pyridazin-3-yl)pyridin-2-yl)piperazin-1-yl)propyl)isoindoline-1,3-dione], for which the IC50 in the assay on KM12 cells (setting [3]) is 2 nM. For the same molecule, on TPM3-TRKA fusion protein [2], the “TPM3-TRKA degradation” value is “exhibited the activities to induce TPM3-TRKA degradation”.

`O=C1CCC(N2C(=O)c3ccc(OCCN4CCN(c5cccc(-c6cnc7ccc(N8CCC[C@@H]8c8cccc(F)c8)nn67)n5)CC4)cc3C2=O)C(=O)N1` (stereo partly drawn) [TR-173, 2-(2,6-dioxopiperidin-3-yl)-5-(2-(4-(6-(6-((R)-2-(3-fluorophenyl)pyrrolidin-1-yl)imidazo[1,2-b]pyridazin-3-yl)pyridin-2-yl)piperazin-1-yl)ethoxy)isoindoline-1,3-dione]: the 50% inhibitory concentration (IC50) in the assay with KM12 cells (setting [3]) came to 8.9 nM. Also, on TPM3-TRKA fusion protein [2], the “TPM3-TRKA degradation” value is listed as “exhibited the activities to induce TPM3-TRKA degradation”.

In the case of `O=C1CCC(N2C(=O)c3ccc(NCCOCCOCCN4CCN(c5cccc(-c6cnc7ccc(N8CCC[C@H]8c8cccc(F)c8)nn67)n5)CC4)cc3C2=O)C(=O)N1` (stereo partly drawn) [TR-177, 2-(2,6-Dioxopiperidin-3-yl)-5-((2-(2-(2-(4-(6-(6-((S)-2-(3-fluorophenyl)pyrrolidin-1-yl)imidazo[1,2-b]pyridazin-3-yl)pyridin-2-yl)piperazin-1-yl)ethoxy)ethoxy)ethyl)amino)isoindoline-1,3-dione], in the assay with KM12 cells (setting [3]), the IC50 came out at 1.9 nM. The “TPM3-TRKA degradation” value at TPM3-TRKA fusion protein [2] was “exhibited the activities to induce TPM3-TRKA degradation”.

Consider `Cn1c(=O)n(C2CCC(=O)NC2=O)c2cccc(CCCCN3CCN(c4cccc(-c5cnc6ccc(N7CCC[C@@H]7c7cccc(F)c7)nn56)n4)CC3)c21` (stereo partly drawn) [TR-241, 3-(4-(4-(4-(6-(6-((R)-2-(3-fluorophenyl)pyrrolidin-1-yl)imidazo[1,2-b]pyridazin-3-yl)pyridin-2-yl)piperazin-1-yl)butyl)-3-methyl-2-oxo-2,3-dihydro-1H-benzo[d]imidazol-1-yl)piperidine-2,6-dione], for which the IC50 in the assay on KM12 cells (KM12, 72 h) amounted to 9 nM.

Regarding `O=C1CCC(n2c(=O)n(CCN3CCN(c4cccc(-c5cnc6ccc(N7CCC[C@@H]7c7cccc(F)c7)cn56)n4)CC3)c3ccccc32)C(=O)N1` (stereo partly drawn) [TR-242, 3-(3-(2-(4-(6-(6-((R)-2-(3-fluorophenyl)pyrrolidin-1-yl)imidazo[1,2-a]pyridin-3-yl)pyridin-2-yl)piperazin-1-yl)ethyl)-2-oxo-2,3-dihydro-1H-benzo[d]imidazol-1-yl)piperidine-2,6-dione], in the assay with KM12 cells (setting [4]), the IC50 was over 500 nM.

`Cn1c(=O)n(C2CCC(=O)NC2=O)c2cccc(OCCN3CCN(c4cccc(-c5cnc6ccc(N7CCC[C@@H]7c7cccc(F)c7)nn56)n4)CC3)c21` (stereo partly drawn) [TR-244, 3-(4-(2-(4-(6-(6-((R)-2-(3-fluorophenyl)pyrrolidin-1-yl)imidazo[1,2-b]pyridazin-3-yl)pyridin-2-yl)piperazin-1-yl)ethoxy)-3-methyl-2-oxo-2,3-dihydro-1H-benzo[d]imidazol-1-yl)piperidine-2,6-dione]: the IC50 in the assay with KM12 cells (setting [4]) turned out to be 298 nM.

As to `Cn1c(=O)n(C2CCC(=O)NC2=O)c2cccc(OCCCN3CCN(c4cccc(-c5cnc6ccc(N7CCC[C@@H]7c7cccc(F)c7)nn56)n4)CC3)c21` (stereo partly drawn) [TR-245, 3-(4-(3-(4-(6-(6-((R)-2-(3-fluorophenyl)pyrrolidin-1-yl)imidazo[1,2-b]pyridazin-3-yl)pyridin-2-yl)piperazin-1-yl)propoxy)-3-methyl-2-oxo-2,3-dihydro-1H-benzo[d]imidazol-1-yl)piperidine-2,6-dione], in the assay with KM12 cells (setting [4]), the IC50 is over 500 nM.

Regarding `Cn1c(=O)n(C2CCC(=O)NC2=O)c2ccc(OCCN3CCN(c4cccc(-c5cnc6ccc(N7CCC[C@@H]7c7cccc(F)c7)nn56)n4)CC3)cc21` (stereo partly drawn) [TR-246, 3-(5-(2-(4-(6-(6-((R)-2-(3-fluorophenyl)pyrrolidin-1-yl)imidazo[1,2-b]pyridazin-3-yl)pyridin-2-yl)piperazin-1-yl)ethoxy)-3-methyl-2-oxo-2,3-dihydro-1H-benzo[d]imidazol-1-yl)piperidine-2,6-dione], in the assay on KM12 cells (setting [4]), the half-inhibitory concentration (IC50) amounted to 101 nM.

The term IC50 denotes the concentration that inhibits the measured activity by half.
